Values joined by “and” are separate entries in the source; they are usually repeats but may differ in a detail not shown here. Equal values may be shown once. Read-outs that look alike come from different tables or passages of the source.
Experiments:
[1] = molecular target: T1, rPDE10A2 (Rattus norvegicus, UniProt Q9QYJ6); assay: In vitro assay PDE10A, rat recombinant enzyme (SPA, 3H-cAMP); format: biochemical; conditions: -log IC50 expressed in mol/L; 60 nM cAMP; read-out: PDE10A2 pIC50 - rat enzyme (converted)
T1 construct: made in house; host or cells: Sf9 insect cells (baculovirus)
T1 sequence (Q9QYJ6 1-794): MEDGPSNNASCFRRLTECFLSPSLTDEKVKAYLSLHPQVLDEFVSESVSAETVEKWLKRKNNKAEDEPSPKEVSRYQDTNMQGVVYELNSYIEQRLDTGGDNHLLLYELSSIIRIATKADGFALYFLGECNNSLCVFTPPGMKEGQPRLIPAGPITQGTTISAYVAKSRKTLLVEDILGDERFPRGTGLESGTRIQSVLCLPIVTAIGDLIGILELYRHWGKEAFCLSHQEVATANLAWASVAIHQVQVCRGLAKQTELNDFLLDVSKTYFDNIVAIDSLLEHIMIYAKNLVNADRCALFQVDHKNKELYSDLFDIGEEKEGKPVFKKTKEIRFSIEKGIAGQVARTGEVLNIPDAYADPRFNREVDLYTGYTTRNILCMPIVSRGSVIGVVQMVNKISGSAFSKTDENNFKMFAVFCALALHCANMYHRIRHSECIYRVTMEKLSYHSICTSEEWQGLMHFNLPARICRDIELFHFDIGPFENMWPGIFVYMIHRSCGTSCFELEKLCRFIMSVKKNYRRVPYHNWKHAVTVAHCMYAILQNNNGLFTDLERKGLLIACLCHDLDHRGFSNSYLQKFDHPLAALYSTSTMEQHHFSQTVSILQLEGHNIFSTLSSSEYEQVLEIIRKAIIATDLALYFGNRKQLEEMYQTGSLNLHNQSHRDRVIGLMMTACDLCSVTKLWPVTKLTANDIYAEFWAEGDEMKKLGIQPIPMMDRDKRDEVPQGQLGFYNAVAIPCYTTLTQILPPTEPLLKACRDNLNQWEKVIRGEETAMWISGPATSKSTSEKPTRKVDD
Method: (§1) Human or rat recombinant PDE10A (hPDE10A2 or rPDE10A2) was expressed in Sf9 cells using a recombinant hPDE10A or rPDE10A baculovirus construct. Cells were harvested after 48 h of infection and the hPDE10A or rPDE10A protein was purified by metal chelate chromatography on Ni-sepharose 6FF. Tested compounds were dissolved and diluted in 100% DMSO to a concentration 100 fold of the final concentration in the assay. Compound dilutions (0.4 μl) were added in 384 well plates to 20 μl of incubation buffer (50 mM Tris pH 7.8, 8.3 mM MgCl2, 1.7 mM EGTA). 10 μl of hPDE10A or rPDE10A enzyme in incubation buffer was added and the reaction was started by addition of 10 μl substrate to a final concentration of 60 nM cAMP and 0.008 μCi ^3H-cAMP. The reaction was incubated for 60 min. at RT. After incubation, the reaction was stopped with 20 μl of stop solution consisting of 17.8 mg/ml PDE SPA (scintillation proximity assay) beads. After sedimentation of the beads during 30 min. the radioactivity was measured in a Perkin Elmer Topcount scintillation counter and results were expressed as cpm. For blanc values the enzyme was omitted from the reaction and replaced by incubation buffer. Control values were obtained by addition of a final concentration of 1% DMSO instead of compound. A best fit curve was fitted by a minimum sum of squares method to the plot of % of control value substracted with blanc value versus compound concentration and the half maximal inhibitory concentration (IC50) value was derived from this curve.

[2] = tested on: apomorphine-induced stereotypy; assay: Apomorphine-induced stereotypy in rats (APO); format: in vivo, rat; conditions: apomorphine 1.0 mg/kg i.v.; for ED50: Rattus norvegicus
Method: Apomorphine (1.0 mg/kg, i.v.)-induced stereotypy (compulsive sniffing, licking, chewing) was scored every 5 min. over the first hour after injection of apomorphine, following a 1 hour interval pre-treatment with the test compound. The score system was: (3) pronounced, (2) moderate, (1) slight, and (0) absent. Criteria for drug-induced inhibition of stereotypy: fewer than 6 scores of 3 (0.16% false positives), fewer than 6 scores of 2 (0.0% false positives), or fewer than 7 scores of 1 (0.81% false positives).

[3] = tested on: plasma proteins; assay: Plasma protein binding by equilibrium dialysis; format: in vitro ADME, human; conditions: human plasma; for Free fraction, Average per subject: average of duplicate per subject; for Free fraction: single determinations, subjects 1-3 in duplicate, equilibrium dialysis 4 h, 37° C.; for Concentration dependency in the plasma protein binding: within the concentration range tested
Method: (§2) The plasma protein binding and blood distribution was investigated in healthy human subjects. Fresh blood was collected and centrifugated (approximately 1700 g for 10 min, room temperature, Hettich Rotixa AP centrifuge). The experiment was started within 4 hours after blood collection.
(§3) Individual blank plasma samples from three healthy male subjects, tested in duplicate, were fortified with compound la or compound lb at different concentrations (see Table 5). Plasma samples were spiked with 10 μl spike solution per ml of sample (1% ethanol (v/v)).
(§4) Fortified plasma was subjected to equilibrium dialysis (ED), for 4 h against a 0.067 M phosphate buffer, pH 7.17 at 37° C. in a Dianorm system with identical macro-1 Teflon cells and Spectra/Por® RC 2 dialysis membranes (MW cut-off 12-14 kDa). After dialysis, the contents of the two compartments of the dialysis cells were collected separately. The buffer samples were diluted with 1 mL of 5% Bovine Serum Albumin in a Phosphate buffer 0.05M, pH 7.5.
(§5) The plasma samples (before and after equilibrium dialysis) and buffer samples were analysed for compound la or compound lb using a qualified chiral LC-MS/MS assay on a API4000 mass spectrometer (Applied Biosystems).
(§6) The fraction of the unbound test compound (fu) was calculated as the ratio of the unbound concentration (Cu) in the buffer compartment to the total concentration (CED) in the protein compartment of the dialysis cells. The percentage of the free test compound was calculated as […]

[4] = Plasma protein binding by equilibrium dialysis; format: in vitro ADME, human; conditions: male, human, plasma, pH 7.17, human plasma
Method: as §2, §3, §4, §5, §6

[5] = molecular target: T2, hPDE10A2 (Homo sapiens, UniProt Q9Y233); assay: In vitro assay PDE10A, human recombinant enzyme (SPA, 3H-cAMP); format: biochemical; conditions: -log IC50 expressed in mol/L; 60 nM cAMP; read-out: PDE10A2 pIC50 - human enzyme (converted)
T2 construct: made in house; host or cells: Sf9 insect cells (baculovirus)
Method: as §1

[6] = Pharmacokinetics of oral microdose in healthy subjects; format: in vivo, human; conditions: single oral dose of 100 μg
Source text: The pharmacokinetics of an oral microdose of compound 1 according to the invention and compound 1 of WO2011/051342 was studied by a single-dose, open-label, parallel-group, randomized pharmacokinetic (PK) study. Each treatment group consisted of 6 subjects (healthy men between 18 to 55 years with a body mass index (BMI) between 18 and 30 kg/m^2 (inclusive) and body weight not less than 50 kg). Subjects were randomized to receive either compound 1 of WO2011/051342 or compound 1 (according to the invention) treatment.
Compound 1 of WO2011/051342 and compound 1 according to the invention were supplied as a 0.1 mg/mL oral solution containing HP-β-CD and citric acid in purified water. The pH of the solution was adjusted to pH 2.0 by the use of hydrochloric acid. Subjects were admitted to the investigational site on Day -1. Following an overnight fast of at least 10 hours, subjects received a single oral aqueous solution of […] of compound 1 of WO2011/051342 or compound 1 according to the invention, with 240 mL of noncarbonated water as per randomization in the morning of Day 1 between 7:00 AM and 10:30 AM. Drinks were not allowed from 1 hour prior until 1 hour after drug administration. Blood samples were collected at specified time points to measure compound 1 of WO2011/051342 or compound 1 (according to the invention) plasma concentrations. Subjects were discharged on Day 3 after collecting the 48-hour PK sample. Subjects returned to the clinical unit on the morning of Day 4 for the 72-hour PK blood sampling.
Venous blood samples of 6 mL for the measurement of compound 1 of WO2011/051342 or compound 1 according to the invention plasma concentrations were collected at specified time points.
Plasma samples were analyzed to determine concentrations of compound 1 of WO2011/051342 or compound 1 according to the invention using a qualified liquid chromatography/mass spectrometry/mass spectrometry (LC-MS/MS) method.
Pharmacokinetic analyses were performed for all subjects' data who received a dose of compound 1 of WO2011/051342 and compound 1 according to the invention. Plasma concentrations versus time profiles were plotted for each subject. Mean concentration versus time profiles were plotted for each compound, based on planned blood sampling times. Descriptive statistics, including arithmetic mean, standard deviation, CV, geometric mean, median, minimum, and maximum were calculated for the plasma concentrations at each sampling time and for all PK parameters of compound 1 of WO2011/051342 and compound 1 according to the invention.

[7] = iv, 1 hour pre-treatment with test compound, dose at which 50% of animals show the effect
[8] = average of duplicate per subject, read-out: Free fraction, Average per subject
[9] = single determinations, subjects 1-3 in duplicate, equilibrium dialysis 4 h, 37° C., read-out: Free fraction
[10] = male, human, plasma, 100 ug, fasted, mean

T2 sequence (Q9Y233 267-1055): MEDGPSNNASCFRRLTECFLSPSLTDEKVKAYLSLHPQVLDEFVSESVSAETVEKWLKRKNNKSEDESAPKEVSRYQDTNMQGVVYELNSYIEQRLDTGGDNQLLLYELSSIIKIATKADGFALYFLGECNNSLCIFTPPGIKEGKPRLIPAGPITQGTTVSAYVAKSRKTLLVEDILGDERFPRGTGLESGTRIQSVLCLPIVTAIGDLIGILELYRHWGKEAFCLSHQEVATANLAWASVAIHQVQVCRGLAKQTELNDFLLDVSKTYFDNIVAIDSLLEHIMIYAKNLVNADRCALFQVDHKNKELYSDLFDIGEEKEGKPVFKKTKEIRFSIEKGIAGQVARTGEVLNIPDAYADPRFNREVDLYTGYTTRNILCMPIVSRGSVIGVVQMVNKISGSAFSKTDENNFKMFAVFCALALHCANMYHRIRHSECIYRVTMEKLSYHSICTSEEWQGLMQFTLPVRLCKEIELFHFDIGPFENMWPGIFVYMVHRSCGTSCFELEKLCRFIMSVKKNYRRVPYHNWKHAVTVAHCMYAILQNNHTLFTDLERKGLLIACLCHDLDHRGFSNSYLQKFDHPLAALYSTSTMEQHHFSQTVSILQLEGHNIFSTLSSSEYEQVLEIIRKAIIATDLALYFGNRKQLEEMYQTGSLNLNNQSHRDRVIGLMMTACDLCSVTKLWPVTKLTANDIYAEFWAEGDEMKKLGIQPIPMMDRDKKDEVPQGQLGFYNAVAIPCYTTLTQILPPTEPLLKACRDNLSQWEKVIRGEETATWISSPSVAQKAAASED

For `COCC(O)c1ccc(-c2c(C)nc3c(N4CCOCC4)ccnn23)cn1` (single isomer, unassigned) [Compound 1a], the IC50 [1] was 0.0479 µM, the ED50 [2, 7] was 1.2 mg/kg and the “Average percentage of free compound in plasma” value ([3]; 0.1 μg/ml) was 48.3%. For the same molecule, the “Free fraction, Average per subject” value ([3]; 0.1 μg/ml) was 48.5% and 48.3%, the Free fraction ([3]; 0.1 μg/ml) was 50.1% and 47.6% and 48.9% and 47.3% and the “Average percentage of free compound in plasma” value ([3]; 13 μg/ml) was 45.5%. The “Free fraction, Average per subject” value ([3]; 13 μg/ml) was 45.4% and 46.2%, the Free fraction ([3]; 13 μg/ml) was 46.1% and 46.5% and 46.0% and 43.9% and 45.6% and the “Concentration dependency in the plasma protein binding” value [3] was “No relevant concentration dependency”. It also gave a fraction unbound at 4 h, 0.1 μg/ml [4, 8] of 0.481, a fraction unbound at 4 h, 0.1 μg/ml [4, 9] of 0.468 and a fraction unbound at 4 h, 13 μg/ml [4, 8] of 0.448. The fraction unbound at 4 h, 13 μg/ml [4, 9] was 0.446, the fraction unbound at 4 h ([4]; 0.1 and 13 μg/ml pooled, three subjects in duplicate, read-out: Free fraction, Average (S.D.) (n = 12)) was 0.469 and the IC50 [5] was 0.0759 µM. It also gave a melting point of 134.9 °C.
With `COCC(O)c1ccc(-c2c(C)nc3c(N4CCOCC4)ccnn23)cn1` (single isomer, unassigned) [Compound 1b] the IC50 [1] was 0.0501 µM, the “APO ED50” value ([2]; 1 hour pre-treatment with test compound, dose at which 50% of animals show the effect) was 1.2 mg/kg and the “Average percentage of free compound in plasma” value ([3]; 0.1 μg/ml) was 53.4%. The “Free fraction, Average per subject” value ([3]; 0.1 μg/ml) was 54.0% and 56.3% and 50.0%, the Free fraction ([3]; 0.1 μg/ml) was 55.2% and 57.4% and 46.9% and 53.1% and 54.9% and the “Average percentage of free compound in plasma” value ([3]; 13 μg/ml) was 50.9%. The “Free fraction, Average per subject” value ([3]; 13 μg/ml) was 52.6% and 49.6% and 50.5%, the Free fraction ([3]; 13 μg/ml) was 52.7% and 46.6% and 51.4% and 49.7% and 51.9% and 53.3% and the “Free fraction, Average (S.D.) (n = 12)” value ([3]; 0.1 and 13 μg/ml pooled, three subjects in duplicate) was 52.2 (3.2) %. The “Concentration dependency in the plasma protein binding” value [3] was “No relevant concentration dependency”, the IC50 [5] was 0.0603 µM and the melting point was 135.7 °C.
Work on `COCC(O)c1ccc(-c2c(C)nc3c(N4CCOCC4)ccnn23)cn1` (stereo not drawn) [Compound 1, 2-Methoxy-1-[5-(2-methyl-8-morpholin-4-ylimidazo[1,2-b]pyridazin-3-yl)pyridin-2-yl]ethanol] yielded an IC50 [1] of 0.055 µM, an ED50 ([2]; compound dosed orally, 1 hour pre-treatment) of 1 mg/kg and an IC50 [5] of 0.0646 µM. The Tmax ([6]; male, human, plasma, 100 ug, fasted, Median (Min-Max)) was 0.64 h, the AUC(0-inf) [6, 10] was 2.64 ng·h/mL and the AUC(0-t) [6, 10] was 2.61 ng·h/mL. It also gave a Cmax [6, 10] of 0.758 ng/mL, a Vd/F [6, 10] of 333 ± 117 L and a half-life [6, 10] of 5.7 h. For the same molecule, the “Cl/F, fold lower compared to compound 1 of WO2011/051342” value [6] was “approximately 3.8 fold”, the “Vd/F, fold lower compared to compound 1 of WO2011/051342” value [6] was “approximately 3.5 fold” and the CL/F ([6]; fasted, mean) was 47.9 ± 24.6 L/h and 47.9 L/h. It also gave a λz ([6]; fasted, mean) of 0.148 h⁻¹ and a melting point of 137.2 °C.
`COCC(O)c1ccc(-c2c(C)nc3c(N4CCOCC4)nccn23)cn1` (stereo not drawn) [Compound 2, 2-Methoxy-1-[5-(2-methyl-8-morpholin-4-ylimidazo[1,2-a]pyrazin-3-yl)pyridin-2-yl]ethanol] gave an ED50 [2, 7] of 0.31 mg/kg, an IC50 [5] of 0.263 µM and a melting point of 106.9 °C.
Work on `Cc1nc2c(N3CCOCC3)ccnn2c1-c1ccc(C2(O)CCOCC2)nc1` [Compound 3, 4-[5-(2-Methyl-8-morpholin-4-ylimidazo[1,2-b]pyridazin-3-yl)pyridin-2-yl]tetrahydro-2H-pyran-4-ol] yielded an ED50 [2, 7] of 0.31 mg/kg, an IC50 [5] of 0.0275 µM and a melting point of 189.2 °C.
`Cc1nc2c(N3CCOCC3)nccn2c1-c1ccc(C2(O)CCOCC2)nc1` [Compound 4, 4-[5-(2-Methyl-8-morpholin-4-ylimidazo[1,2-a]pyrazin-3-yl)pyridin-2-yl]tetrahydro-2H-pyran-4-ol] showed an ED50 [2, 7] of 0.31 mg/kg, an IC50 [5] of 0.112 µM and a melting point of 181.6 °C.

Source: patent US20150203498A1, “INHIBITORS OF PHOSPHODIESTERASE 10 ENZYME” (Janssen Pharmaceutica NV, priority 2012, published 2015)
